Data from article PMC3742231 (International Journal of Molecular Sciences, 2013).
pIC50: −log10 of the molar value. Where two headings read alike, the source gives them in different places.

How the values were obtained:
[1] = target: CYP2D6 (Homo sapiens, UniProt P10635); assay: N-in-one CYP inhibition assay in human liver microsomes; type of inhibition
Description: (§1) Human liver microsomes were prepared and pooled from ten human livers (HL20–24,28–32) as previously described. Human liver samples were obtained from the University Hospital of Oulu as surplus tissue from cadaver kidney transplant donors. The collection of surplus tissue was approved by the Ethics Committee of the Medical Faculty of the University of Oulu, Finland. All donors were Caucasians ranging in age from 21 to 62 years; four were female and six were male. Detailed information on each donor has been published previously. Protein concentrations were measured using the Bradford method.
(§2) In vitro inhibition of CYP isoforms was first assessed using the N-in-one approach (also called the cocktail approach). CYP-selective substrates and reactions are listed in Table 1; concentrations were roughly at or below the respective Michaelis-Menten coefficients. […] A Micromass LCT time-of-flight high-resolution mass spectrometer (Micromass Ltd., Manchester, UK) equipped with a Z-spray electrospray ionization source was used for the monitoring of CYP-selective reactions. Integrated mass chromatogram peak areas were normalized versus internal standards before comparing metabolites in different preparations. More details of the assay are available in previous publications.
(§3) Dixon, Lineweaver-Burk, Hanes, and Hofstee plots were used for the analysis of the type of inhibition.

[2] = target: T1, CYP2C8 (Homo sapiens, UniProt P10632); assay: as above
T1 sequence (P10632 1-490): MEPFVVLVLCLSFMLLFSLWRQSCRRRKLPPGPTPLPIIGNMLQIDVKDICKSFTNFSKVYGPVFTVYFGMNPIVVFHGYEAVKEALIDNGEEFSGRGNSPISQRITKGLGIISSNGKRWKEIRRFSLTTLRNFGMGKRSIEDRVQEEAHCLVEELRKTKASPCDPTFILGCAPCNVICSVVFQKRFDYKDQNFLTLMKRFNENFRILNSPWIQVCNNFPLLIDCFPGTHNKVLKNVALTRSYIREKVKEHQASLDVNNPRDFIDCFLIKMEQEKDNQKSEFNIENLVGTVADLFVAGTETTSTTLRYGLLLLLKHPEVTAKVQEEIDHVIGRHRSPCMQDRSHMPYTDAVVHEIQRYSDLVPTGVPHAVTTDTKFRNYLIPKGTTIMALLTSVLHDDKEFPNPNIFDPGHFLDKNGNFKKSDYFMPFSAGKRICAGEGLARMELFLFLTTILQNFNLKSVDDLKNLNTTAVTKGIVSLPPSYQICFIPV
Description: as §1, §2, §3

[3] = target: T2, CYP2A6 (Homo sapiens, UniProt P11509); assay: N-in-one CYP inhibition assay in human liver microsomes
T2 sequence (P11509 1-494): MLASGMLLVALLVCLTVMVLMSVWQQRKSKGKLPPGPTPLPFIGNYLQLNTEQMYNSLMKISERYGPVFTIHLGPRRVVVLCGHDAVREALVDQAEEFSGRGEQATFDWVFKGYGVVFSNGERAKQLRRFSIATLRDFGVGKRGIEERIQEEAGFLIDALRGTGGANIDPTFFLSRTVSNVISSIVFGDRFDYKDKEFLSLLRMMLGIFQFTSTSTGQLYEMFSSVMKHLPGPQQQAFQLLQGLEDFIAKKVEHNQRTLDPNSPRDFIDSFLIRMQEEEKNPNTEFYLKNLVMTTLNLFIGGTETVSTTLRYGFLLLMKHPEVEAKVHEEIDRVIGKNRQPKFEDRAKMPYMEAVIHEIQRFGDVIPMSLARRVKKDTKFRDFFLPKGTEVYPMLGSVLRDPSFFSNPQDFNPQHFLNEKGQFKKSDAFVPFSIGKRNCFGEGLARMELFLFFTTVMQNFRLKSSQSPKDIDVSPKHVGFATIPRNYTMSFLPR
Description: as §1, §2

[4] = target: CYP2E1 (Homo sapiens, UniProt P05181); assay: as above
Description: as §1, §2

[5] = cited from earlier work
[6] = target: T3, CYP2B6 (Homo sapiens, UniProt P20813); assay: biochemical
T3 sequence (P20813 1-491): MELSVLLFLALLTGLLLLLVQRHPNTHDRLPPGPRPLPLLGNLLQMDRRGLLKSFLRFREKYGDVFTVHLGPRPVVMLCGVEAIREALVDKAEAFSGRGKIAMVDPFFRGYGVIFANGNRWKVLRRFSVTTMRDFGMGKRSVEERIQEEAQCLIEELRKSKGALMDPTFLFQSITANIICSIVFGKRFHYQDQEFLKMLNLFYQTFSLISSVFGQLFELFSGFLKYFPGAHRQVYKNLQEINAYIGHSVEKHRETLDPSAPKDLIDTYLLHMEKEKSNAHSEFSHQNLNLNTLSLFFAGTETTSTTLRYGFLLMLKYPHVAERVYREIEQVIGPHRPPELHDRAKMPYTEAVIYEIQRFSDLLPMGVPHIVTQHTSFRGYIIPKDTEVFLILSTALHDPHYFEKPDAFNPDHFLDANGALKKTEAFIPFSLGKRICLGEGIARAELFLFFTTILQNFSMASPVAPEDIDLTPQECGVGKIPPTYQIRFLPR
Description: as §1, §2, §3

[7] = target: CYP2C19 (Homo sapiens, UniProt P33261); assay: biochemical; conditions: for pIC50: human liver microsomes, probe 2 μM
Description: as §1, §2, §3

[8] = test system: CYP3A4; conditions: 20 μM, 48 h
Description: (§4) Freshly isolated human hepatocytes were obtained from the UK Human Tissue Bank (Leicester, UK).
(§5) Omeprazole (CYP1A2 inducer; 30 μM), phenobarbital (CYP2B6 inducer; 1 mM) and rifampicin (CYP2C9, CYP2C19, and CYP3A4 inducer; 50 μM) dissolved in dimethyl sulfoxide (0.5% v/v final), served as reference inducers.

[9] = test system: CYP2B6; conditions: 20 μM, 48 h
Description: as §4, §5

[10] = test system: CYP enzyme activities; conditions: cultured human hepatocytes
Description: as §4, §5

[11] = test system: CYP2C19; conditions: 0.2, 2 and 20 μM for 48 h
Description: as §4, §5

[12] = test system: CYP1A2; conditions: 0.2, 2 and 20 μM for 48 h
Description: as §4, §5

[13] = test system: CYP2C9; conditions: 0.2, 2 and 20 μM for 48 h
Description: as §4, §5

[14] = steady state, converted from ng/mL

Sequence of CYP2C19 (Homo sapiens, UniProt P33261) (P33261 whole entry): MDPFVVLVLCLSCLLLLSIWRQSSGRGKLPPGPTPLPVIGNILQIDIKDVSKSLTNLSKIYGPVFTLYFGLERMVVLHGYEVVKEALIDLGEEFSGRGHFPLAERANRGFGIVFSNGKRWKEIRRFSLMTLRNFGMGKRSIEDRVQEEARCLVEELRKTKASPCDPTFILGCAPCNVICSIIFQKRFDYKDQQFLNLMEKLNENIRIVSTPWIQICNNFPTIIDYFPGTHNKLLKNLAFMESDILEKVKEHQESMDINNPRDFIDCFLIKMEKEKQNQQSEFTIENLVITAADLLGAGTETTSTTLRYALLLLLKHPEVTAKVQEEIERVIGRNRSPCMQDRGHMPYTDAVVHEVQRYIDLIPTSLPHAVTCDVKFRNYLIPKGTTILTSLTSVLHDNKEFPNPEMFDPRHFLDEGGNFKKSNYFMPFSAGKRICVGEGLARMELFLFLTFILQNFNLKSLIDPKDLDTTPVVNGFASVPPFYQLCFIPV
Sequence of CYP2D6 (P10635 whole entry): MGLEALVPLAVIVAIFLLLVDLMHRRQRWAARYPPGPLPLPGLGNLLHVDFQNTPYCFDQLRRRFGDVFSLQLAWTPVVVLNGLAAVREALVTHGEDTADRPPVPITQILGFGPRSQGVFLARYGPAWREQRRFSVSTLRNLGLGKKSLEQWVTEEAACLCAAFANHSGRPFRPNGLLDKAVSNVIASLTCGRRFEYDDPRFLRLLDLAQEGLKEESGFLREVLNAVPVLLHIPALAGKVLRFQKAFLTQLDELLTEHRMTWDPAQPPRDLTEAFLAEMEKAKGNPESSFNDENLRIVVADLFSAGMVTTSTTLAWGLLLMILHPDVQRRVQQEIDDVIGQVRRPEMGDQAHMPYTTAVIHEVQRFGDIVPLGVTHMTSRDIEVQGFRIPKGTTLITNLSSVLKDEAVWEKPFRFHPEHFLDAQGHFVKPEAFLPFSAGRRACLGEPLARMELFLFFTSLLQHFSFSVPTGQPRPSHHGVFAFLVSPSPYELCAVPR
Sequence of CYP2E1 (P05181 whole entry): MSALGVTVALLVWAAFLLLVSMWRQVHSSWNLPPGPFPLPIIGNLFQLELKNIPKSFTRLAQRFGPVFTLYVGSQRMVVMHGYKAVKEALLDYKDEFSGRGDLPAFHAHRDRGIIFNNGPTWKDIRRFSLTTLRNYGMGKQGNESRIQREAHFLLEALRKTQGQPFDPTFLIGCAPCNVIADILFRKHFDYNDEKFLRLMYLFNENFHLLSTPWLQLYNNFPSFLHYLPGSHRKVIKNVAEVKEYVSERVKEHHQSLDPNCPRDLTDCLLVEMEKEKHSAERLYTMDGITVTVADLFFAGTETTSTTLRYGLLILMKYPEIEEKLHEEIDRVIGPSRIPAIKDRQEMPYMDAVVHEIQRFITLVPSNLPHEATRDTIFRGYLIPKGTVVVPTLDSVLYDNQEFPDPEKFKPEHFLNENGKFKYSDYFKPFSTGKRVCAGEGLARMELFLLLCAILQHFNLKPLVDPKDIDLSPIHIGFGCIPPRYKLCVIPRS

With OCCOc1ccc(/C(=C(/CCCl)c2ccccc2)c2ccccc2)cc1 [Ospemifene] as the compound, how does the pIC50 [1] read?
The pIC50 was 4.31.

And the Type of inhibition ([1]; results not shown)?
Its Type of inhibition is “competitive”.

What about the pIC50 [2] of the same compound?
The pIC50 was 4.44.

What about the Type of inhibition ([2]; results not shown) of the same compound?
Its Type of inhibition is “likely competitive”.

What about the pIC50 [3] of the same compound?
The pIC50 was < 4.00.

What about the pIC50 [4] of the same compound?
Its pIC50 is < 4.00.

What about the average plasma half-life ([5]; introduction, no reference given) of the same compound?
Its average plasma half-life is “about 20 h”.

And the “Cav at steady state” value [5, 14]?
The value was ~600 nM.

What about the “Cmin at steady state” value [5, 14] of the same compound?
The value was ~250 nM.

And the Cmax ([5]; steady state, converted from ng/mL, read-out: mean Cmax at steady state)?
The Cmax was ~2000 nM.

What about the “Cav at steady state” value ([5]; steady state) of the same compound?
The value was 227 ng/mL.

What about the “Cmin at steady state” value ([5]; steady state) of the same compound?
The value was 94 ng/mL.

And the “mean Cmax at steady state” value ([5]; steady state)?
The value was 785 ng/mL.

What about the pIC50 [6] of the same compound?
The pIC50 was 5.11.

And the Type of inhibition ([6]; results not shown)?
Its Type of inhibition is “competitive”.

And the pIC50 ([7]; IC50, Omeprazole 5-hydroxylation)?
The pIC50 was 4.65.

What about the pIC50 ([7]; IC50, Omeprazole demethylation) of the same compound?
Its pIC50 is 4.33.

And the Type of inhibition ([7]; results not shown)?
The Type of inhibition was “noncompetitive”.

And the “Induction of CYP3A4 activity” value [8]?
Its value is “approximately two-fold”.

What about the “Induction of CYP2B6 activity” value [9] of the same compound?
Its value is “approximately two-fold”.

And the “Induction of CYPs” value [10]?
The value was ≤ 2.4 fold.

And the “Change in CYP2C19 activity” value [11]?
Its value is “did not cause any relevant changes”.

What about the “Change in CYP1A2 activity” value [12] of the same compound?
Its value is “did not cause any relevant changes”.

And the “Change in CYP2C9 activity” value [13]?
Its value is “did not cause any relevant changes”.
